Source: USRE49850E1, “N-(pyridin-2-yl)-4-(thiazol-5-yl)pyrimidin-2-amine derivatives as therapeutic compounds” (AUCENTRA THERAPEUTICS PTY LTD, priority 2015, dated 2024)

Assays:
[1] = target: CDK1B (Homo sapiens, UniProt P06493); test: Kinase assay CDK1B (radiometric profiling service); format: biochemical; conditions: for Ki: apparent Ki calculated from Km (ATP) and IC50, read-out: CDK inhibition Ki CDK1B
Procedure, shortened: (§1)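 Luminescent ADP-Glo read-out for CDK4/D1 (radiometric alternative); CDK7/2/1 radiometric via profiler. CDK4/D1: RB-CTF, Tris pH 7.5, MgCl2, DTT, BSA, ATP start, 40 min 37° C. 10-pt 1:3 series, 10 μM–0.5 nM. 4-PL IC50; Ki calc. from Km(ATP).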

[2] = target: CDK 2A (Homo sapiens, UniProt P24941); test: Kinase assay CDK2A (radiometric profiling service); format: biochemical; conditions: for Ki: apparent Ki calculated from Km (ATP) and IC50, read-out: CDK inhibition Ki CDK 2A
Procedure, shortened: as §1

[3] = target: T1, CDK4D1 (Homo sapiens, UniProt P11802); test: Kinase assay CDK4/D1 (radiometric or ADP Glo); format: biochemical; conditions: apparent Ki calculated from Km (ATP) and IC50; read-out: CDK inhibition Ki CDK4D1
T1 construct: purchased Eurofins Pharma Discovery or Reaction Biology Corporation (service)
T1 sequence (P11802 whole entry): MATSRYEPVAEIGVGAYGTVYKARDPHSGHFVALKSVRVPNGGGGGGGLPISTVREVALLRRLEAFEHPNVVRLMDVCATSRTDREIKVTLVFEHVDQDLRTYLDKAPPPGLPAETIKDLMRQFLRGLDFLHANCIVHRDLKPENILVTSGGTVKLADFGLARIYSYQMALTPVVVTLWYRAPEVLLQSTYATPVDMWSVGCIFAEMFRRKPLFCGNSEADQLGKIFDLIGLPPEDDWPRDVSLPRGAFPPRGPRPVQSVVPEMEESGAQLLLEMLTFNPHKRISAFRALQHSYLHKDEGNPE
T1 sequence (P24385 whole entry partner): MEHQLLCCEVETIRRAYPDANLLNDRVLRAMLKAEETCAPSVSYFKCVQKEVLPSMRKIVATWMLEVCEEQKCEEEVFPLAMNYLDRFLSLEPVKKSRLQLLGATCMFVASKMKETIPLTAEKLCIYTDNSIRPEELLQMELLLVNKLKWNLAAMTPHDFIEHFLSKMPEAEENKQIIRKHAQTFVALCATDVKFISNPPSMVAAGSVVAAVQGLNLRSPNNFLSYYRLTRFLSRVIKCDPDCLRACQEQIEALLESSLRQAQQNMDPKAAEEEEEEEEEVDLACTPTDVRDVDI
Procedure, shortened: as §1

[4] = target: T2, CDK6D3 (Homo sapiens, UniProt Q00534); test: Kinase assay CDK6/D3 (radiometric or ADP Glo); format: biochemical; conditions: apparent Ki calculated from Km (ATP) and IC50; read-out: CDK inhibition Ki CDK6D3
T2 construct: purchased Eurofins Pharma Discovery or Reaction Biology Corporation (service)
T2 sequence (Q00534 whole entry): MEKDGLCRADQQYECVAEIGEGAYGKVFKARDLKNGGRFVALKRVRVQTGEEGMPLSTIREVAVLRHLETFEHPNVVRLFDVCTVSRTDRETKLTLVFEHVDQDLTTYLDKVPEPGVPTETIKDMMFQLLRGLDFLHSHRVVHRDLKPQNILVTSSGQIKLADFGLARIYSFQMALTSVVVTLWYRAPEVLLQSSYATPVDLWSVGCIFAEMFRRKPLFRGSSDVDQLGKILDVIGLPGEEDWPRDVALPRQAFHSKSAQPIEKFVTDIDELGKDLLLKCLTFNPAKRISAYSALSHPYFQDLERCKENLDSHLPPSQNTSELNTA
T2 sequence (P30281 whole entry partner): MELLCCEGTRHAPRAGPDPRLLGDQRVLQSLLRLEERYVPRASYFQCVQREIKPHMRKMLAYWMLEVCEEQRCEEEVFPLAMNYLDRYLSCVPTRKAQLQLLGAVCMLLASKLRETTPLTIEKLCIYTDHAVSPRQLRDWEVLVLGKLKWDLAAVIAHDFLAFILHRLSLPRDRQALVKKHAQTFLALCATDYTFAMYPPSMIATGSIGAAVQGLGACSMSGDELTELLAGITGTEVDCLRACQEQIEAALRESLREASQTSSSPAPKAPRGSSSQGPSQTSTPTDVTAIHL
Procedure, shortened: (§2)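 Radiometric inhibition data for CDKs came from Eurofins or Reaction Biology profiling services; CDK4/D1 was also run in-house by ADP-Glo in […] pH 7.5, 20 mM MgCl2, 0.4 mM DTT, 0.1 mg/ml BSA with RB-CTF substrate, 40 min at 37 °C after ATP start. Ten-point 1:3 dilutions (10 μM–0.5 nM); four-parameter IC50, Ki from IC50 and ATP Km.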

[5] = target: CDK7H (Homo sapiens, UniProt P50613); test: Kinase assay CDK7H (radiometric profiling service); format: biochemical; conditions: for Ki: apparent Ki calculated from Km (ATP) and IC50, read-out: CDK inhibition Ki CDK7H
CDK7H, sequence (P50613 whole entry): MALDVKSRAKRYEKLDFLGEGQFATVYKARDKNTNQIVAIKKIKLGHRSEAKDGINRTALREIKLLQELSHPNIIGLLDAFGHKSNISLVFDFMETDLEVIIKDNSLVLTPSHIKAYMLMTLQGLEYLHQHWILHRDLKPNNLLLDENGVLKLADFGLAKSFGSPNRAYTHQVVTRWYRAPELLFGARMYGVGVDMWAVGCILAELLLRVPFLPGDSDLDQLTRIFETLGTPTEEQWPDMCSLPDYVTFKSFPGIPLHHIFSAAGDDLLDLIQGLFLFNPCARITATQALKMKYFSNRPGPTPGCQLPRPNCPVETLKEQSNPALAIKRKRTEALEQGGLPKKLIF
CDK7H, sequence (P51946 whole entry partner): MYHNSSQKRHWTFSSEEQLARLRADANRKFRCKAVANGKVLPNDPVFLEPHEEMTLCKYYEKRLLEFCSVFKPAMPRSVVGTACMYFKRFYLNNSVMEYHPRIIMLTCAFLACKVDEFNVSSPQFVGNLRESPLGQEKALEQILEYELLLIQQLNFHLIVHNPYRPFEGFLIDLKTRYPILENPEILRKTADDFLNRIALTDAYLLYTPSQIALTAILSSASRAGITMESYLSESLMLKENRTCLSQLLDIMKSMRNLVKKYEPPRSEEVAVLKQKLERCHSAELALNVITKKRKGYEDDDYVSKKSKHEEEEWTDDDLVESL
CDK7H, sequence (P51948 whole entry partner): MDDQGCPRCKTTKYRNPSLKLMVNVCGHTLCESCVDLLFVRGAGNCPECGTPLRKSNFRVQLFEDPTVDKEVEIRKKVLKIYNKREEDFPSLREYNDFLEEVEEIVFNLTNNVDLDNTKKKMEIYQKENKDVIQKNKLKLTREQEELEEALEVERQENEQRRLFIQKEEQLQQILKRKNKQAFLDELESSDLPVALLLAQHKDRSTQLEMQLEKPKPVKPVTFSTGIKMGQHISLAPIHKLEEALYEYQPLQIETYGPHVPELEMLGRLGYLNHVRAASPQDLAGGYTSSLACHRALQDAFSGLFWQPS
Procedure, shortened: as §1

[6] = target: T3, CDK9T1 (Homo sapiens, UniProt P50750); test: Kinase assay CDK9/T1 (radiometric or ADP Glo); format: biochemical; conditions: apparent Ki calculated from Km (ATP) and IC50; read-out: CDK inhibition Ki CDK9T1
T3 construct: purchased Eurofins Pharma Discovery or Reaction Biology Corporation (service)
T3 sequence (P50750 whole entry): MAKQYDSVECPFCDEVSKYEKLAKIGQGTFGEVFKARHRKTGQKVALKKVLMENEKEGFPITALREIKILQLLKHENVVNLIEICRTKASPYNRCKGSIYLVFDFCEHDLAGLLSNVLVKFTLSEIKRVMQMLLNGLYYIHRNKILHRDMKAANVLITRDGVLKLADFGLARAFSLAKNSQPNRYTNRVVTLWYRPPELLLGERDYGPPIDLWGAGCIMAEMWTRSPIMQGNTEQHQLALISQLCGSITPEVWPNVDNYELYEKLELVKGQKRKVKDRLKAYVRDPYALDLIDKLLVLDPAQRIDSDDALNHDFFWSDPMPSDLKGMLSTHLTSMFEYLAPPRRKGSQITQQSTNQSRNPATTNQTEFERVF
T3 sequence (O60563 whole entry partner): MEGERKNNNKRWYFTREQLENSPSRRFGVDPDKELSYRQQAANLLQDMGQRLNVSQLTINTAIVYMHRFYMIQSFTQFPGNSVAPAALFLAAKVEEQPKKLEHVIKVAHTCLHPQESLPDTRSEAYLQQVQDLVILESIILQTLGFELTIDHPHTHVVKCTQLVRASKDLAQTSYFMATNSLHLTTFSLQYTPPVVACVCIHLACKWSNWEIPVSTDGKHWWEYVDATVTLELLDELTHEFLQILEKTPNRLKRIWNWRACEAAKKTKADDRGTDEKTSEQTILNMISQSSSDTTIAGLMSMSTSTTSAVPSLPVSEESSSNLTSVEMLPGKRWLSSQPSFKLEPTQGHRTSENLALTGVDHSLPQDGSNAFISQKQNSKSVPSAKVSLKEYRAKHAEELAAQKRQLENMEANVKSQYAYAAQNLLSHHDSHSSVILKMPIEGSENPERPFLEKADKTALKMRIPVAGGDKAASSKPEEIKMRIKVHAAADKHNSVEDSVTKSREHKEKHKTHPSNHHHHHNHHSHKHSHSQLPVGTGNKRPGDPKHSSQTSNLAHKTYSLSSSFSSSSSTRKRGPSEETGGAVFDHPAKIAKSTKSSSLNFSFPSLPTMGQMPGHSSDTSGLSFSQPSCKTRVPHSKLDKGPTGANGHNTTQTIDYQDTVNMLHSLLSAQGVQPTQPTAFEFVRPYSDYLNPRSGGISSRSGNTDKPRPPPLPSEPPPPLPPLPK
Procedure, shortened: as §2

[7] = test system: MV4-11; test: Cell viability assay (resazurin, leukemia cell line) MV4-11; format: cell-based, human; conditions: Homo sapiens, MV4-11, 72 h; read-out: Anti-proliferative activity GI50 MV4-11
Source text: (§3) Compounds from Example 1 were subjected to a standard MTT (3-(4,5-dimethylthiazol-2-yl)-2,5-diphenyltetrazolium bromide) and resazurin assays on solid tumour cell lines and leukemia cell lines, respectively, as previously reported (Wang S et al., J Med Chem 47:1662-1675, 2004 and Diab S. et al. CheMedChem 9:962-972, 2014).

[8] = test system: MDA-MB-453; test: Cell viability assay (MTT, solid tumour cell line) MDA-MB-453; format: cell-based, human; conditions: Homo sapiens, MDA-MB-453, 72 h; read-out: Anti-proliferative activity GI50 MDA-MB-453
Source text: as §3

[9] = test system: A2780; test: Cell viability assay, ovarian A2780; format: cell-based; conditions: Homo sapiens, A2780; 72 h, Ovarian; read-out: Antiproliferative activity GI50 A2780
Source text: as §3

[10] = test system: D458; test: Cell viability assay, medulloblastoma D458; format: cell-based; conditions: Homo sapiens; 72 h, Medulloblastoma; read-out: Antiproliferative activity GI50 D458
Source text: as §3

[11] = test system: D283; test: Cell viability assay, medulloblastoma D283; format: cell-based; conditions: Homo sapiens, D283; 72 h, Medulloblastoma; read-out: Antiproliferative activity GI50 D283
Source text: as §3

CDK1B, sequence (P06493 whole entry): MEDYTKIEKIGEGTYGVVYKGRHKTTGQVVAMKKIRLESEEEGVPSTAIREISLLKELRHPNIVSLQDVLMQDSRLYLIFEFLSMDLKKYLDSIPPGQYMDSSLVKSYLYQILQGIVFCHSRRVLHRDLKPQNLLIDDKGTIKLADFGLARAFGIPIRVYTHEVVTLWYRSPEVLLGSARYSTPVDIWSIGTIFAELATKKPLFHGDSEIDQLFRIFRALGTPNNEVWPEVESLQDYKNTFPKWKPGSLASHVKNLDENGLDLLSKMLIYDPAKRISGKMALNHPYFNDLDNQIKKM
CDK1B, sequence (P14635 whole entry partner): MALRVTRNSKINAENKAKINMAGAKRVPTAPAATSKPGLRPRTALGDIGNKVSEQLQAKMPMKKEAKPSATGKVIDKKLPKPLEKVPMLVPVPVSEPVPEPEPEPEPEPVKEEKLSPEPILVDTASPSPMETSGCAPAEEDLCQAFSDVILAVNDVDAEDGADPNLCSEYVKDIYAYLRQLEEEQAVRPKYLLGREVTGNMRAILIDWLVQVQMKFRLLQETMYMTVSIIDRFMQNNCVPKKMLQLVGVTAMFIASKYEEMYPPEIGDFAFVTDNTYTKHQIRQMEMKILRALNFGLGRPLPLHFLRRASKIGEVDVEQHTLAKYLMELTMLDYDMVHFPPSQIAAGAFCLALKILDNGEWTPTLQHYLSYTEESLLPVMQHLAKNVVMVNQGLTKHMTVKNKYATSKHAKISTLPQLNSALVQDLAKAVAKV

| Ki [1] [nM] | Ki [2] [nM] | Ki [3] [nM] | Ki [4] [nM] | Ki [5] [nM] | Ki [6] [nM] | GI50 [7] [nM] | GI50 [8] [nM] | GI50 [9] [nM] | GI50 [10] [nM] | GI50 [11] [nM] | remaining activity at 10 µM ([1]; compound at 10 μM, read-out: % remaining enzymatic activity at 10 μM CDK1B) [%] | remaining activity at 10 µM ([2]; compound at 10 μM, read-out: % remaining enzymatic activity at 10 μM CDK 2A) [%] | remaining activity at 10 µM ([5]; compound at 10 μM, read-out: % remaining enzymatic activity at 10 μM CDK7H) [%] | Compound |
| --- | --- | --- | --- | --- | --- | --- | --- | --- | --- | --- | --- | --- | --- | --- |
| > 5000 | 1040 | 24 | 366 | > 5000 | > 5000 | 208 ± 30 | 2370 ± 26 | – | – | – | – | – | – | CC(=O)N1CCN(c2ccc(Nc3ncc(F)c(-c4sc(N(C)C)nc4C)n3)nc2)CC1 [Compound 49, 1-(4-(6-((4-(2-(dimethylamino)-4-methylthiazol-5-yl)-5-fluoropyrimidin-2-yl)amino)pyridin-3-yl)piperazin-1-yl)ethan-1-one] |
| 580 | 76 | 37 | 297 | > 5000 | > 5000 | 425 ± 73 | 660 ± 92 | – | – | – | – | – | – | CNc1nc(C)c(-c2nc(Nc3ccc(N4CCN(S(C)(=O)=O)CC4)cn3)ncc2F)s1 [Compound 52, 5-(5-fluoro-2-((5-(4-(methylsulfonyl)piperazin-1-yl)pyridin-2-yl)amino)pyrimidin-4-yl)-N,4-dimethylthiazol-2-amine] |
| 2370 | 206 | 3 | 32 | > 5000 | 3040 | 80 ± 13 | 362 ± 3 | – | – | – | – | – | – | CNc1nc(C)c(-c2nc(Nc3ccc(N4CCCNCC4)cn3)ncc2F)s1 [Compound 53, 5-(2-((5-(1,4-diazepan-1-yl)pyridin-2-yl)amino)-5-fluoropyrimidin-4-yl)-N,4-dimethylthiazol-2-amine] |
| > 5000 | 127 | 41 | 82 | > 5000 | > 5000 | 32 ± 3 | 115 ± 24 | – | – | – | – | – | – | Cc1nc(NC(C)C)sc1-c1ccnc(Nc2ccc(N3CCOCC3)cn2)n1 [Compound 58, N-isopropyl-4-methyl-5-(2-((5-morpholinopyridin-2-yl)amino)pyrimidin-4-yl)thiazol-2-amine] |
| – | – | – | – | – | – | 73 ± 28 | 202 ± 30 | 56 ± 7 | 457 ± 171 | 77 ± 6 | – | – | – | Cc1nc(NC2CCCC2)sc1-c1nc(Nc2ccc(N3CCN(C)CC3)cn2)ncc1F [Compound 64] |
| > 5000 | 228 | 34 | 23 | > 5000 | 4990 | 15 ± 2 | 8110 ± 1150 | – | – | – | – | – | – | CC(=O)N1CCN(c2ccc(Nc3ncc(F)c(-c4sc(NC5CCCC5)nc4C)n3)nc2)CC1 [Compound 69, 1-(4-(6-((4-(2-(cyclopentylamino)-4-methylthiazol-5-yl)-5-fluoropyrimidin-2-yl)amino)pyridin-3-yl)piperazin-1-yl)ethan-1-one] |
| > 5000 | 154 | 8 | 11 | > 5000 | > 5000 | 69 ± 13 | 415 ± 103 | – | – | – | – | – | – | FC(F)(F)c1nc(NC2CCCC2)sc1-c1ccnc(Nc2ccc(N3CCOCC3)cn2)n1 [Compound 73, N-cyclopentyl-5-(2-((5-morpholinopyridin-2-yl)amino)pyrimidin-4-yl)-4-(trifluoromethyl)thiazol-2-amine] |
| > 5000 | > 5000 | 70 | 257 | > 5000 | > 5000 | 191 ± 29 | 7040 ± 710 | – | – | – | – | – | – | Cc1nc(NC2CCCC2)sc1-c1ccnc(Nc2ccc(N3CCCCC3)cn2)n1 [Compound 75, N-cyclopentyl-4-methyl-5-(2-((5-(piperidin-1-yl)pyridin-2-yl)amino)pyrimidin-4-yl)thiazol-2-amine] |
| > 5000 | 1150 | 1 | 31 | > 5000 | 1090 | 454 ± 40 | 356 ± 24 | – | – | – | – | – | – | Cc1nc(NC2CCCC2)sc1-c1nc(Nc2ccc(N3CCC(N(C)C)CC3)cn2)ncc1F [Compound 80, N-cyclopentyl-5-(2-((5-(4-(dimethylamino)piperidin-1-yl)pyridin-2-yl)amino)-5-fluoropyrimidin-4-yl)-4-methylthiazol-2-amine] |
| > 5000 | 348 | 39 | 101 | > 5000 | > 5000 | 2630 ± 582 | 2810 ± 89 | – | – | – | – | – | – | Cc1nc(NC2CCCC2)sc1-c1nc(Nc2ccc(N3CCN(S(C)(=O)=O)CC3)cn2)ncc1F [Compound 82, N-cyclopentyl-5-(5-fluoro-2-((5-(4-(methylsulfonyl)piperazin-1-yl)pyridin-2-yl)amino)pyrimidin-4-yl)-4-methylthiazol-2-amine] |
| 3170 | 121 | 10 | 31 | > 5000 | > 5000 | 328 ± 7 | 6860 ± 798 | – | – | – | – | – | – | CC(=O)N1CCN(c2ccc(Nc3nccc(-c4sc(N(C)C5CCCC5)nc4C)n3)nc2)CC1 [Compound 87, 1-(4-(6-((4-(2-(cyclopentyl(methyl)amino)-4-methylthiazol-5-yl)pyrimidin-2-yl)amino)pyridin-3-yl)piperazin-1-yl)ethan-1-one] |
| > 5000 | > 5000 | 19 | 485 | > 5000 | > 5000 | 508 ± 42 | 494 ± 81 | – | – | – | – | – | – | Cc1nc(Nc2ccccc2)sc1-c1ccnc(Nc2ccc(N3CCN(C)CC3)cn2)n1 [Compound 90, 4-methyl-5-(2-((5-(4-methylpiperazin-1-yl)pyridin-2-yl)amino)pyrimidin-4-yl)-N-phenylthiazol-2-amine] |
| > 5000 | 1040 | 26 | 100 | > 5000 | 2000 | 421 ± 44 | 150 ± 29 | – | – | – | – | – | – | Cc1nc(N(C)c2ccccc2)sc1-c1ccnc(Nc2ccc(N3CCN(C)CC3)cn2)n1 [Compound 91, N,4-dimethyl-5-(2-((5-(4-methylpiperazin-1-yl)pyridin-2-yl)amino)pyrimidin-4-yl)-N-phenylthiazol-2-amine] |
| – | – | 255 | 915 | – | 840 | 3720 ± 357 | > 10000 | – | – | – | 71 | 77 | 52 | Cc1c(-c2ccnc(Nc3ccc(N4CCN(C)CC4)cn3)n2)sc(=O)n1C [Compound 93, 3,4-dimethyl-5-(2-((5-(4-methylpiperazin-1-yl)pyridin-2-yl)amino)pyrimidin-4-yl)thiazol-2(3H)-one] |
| 3660 | 1340 | 33 | 320 | 1260 | 1580 | 1830 ± 194 | > 10000 | – | – | – | – | – | – | CCn1c(C)c(-c2ccnc(Nc3ccc(N4CCN(C)CC4)cn3)n2)sc1=O [Compound 94, 3-ethyl-4-methyl-5-(2-((5-(4-methylpiperazin-1-yl)pyridin-2-yl)amino)pyrimidin-4-yl)thiazol-2(3H)-one] |
